In patent US9926281B2 (priority 2014, dated 2018):

Tests used:
rnADAMTS-5 (1-564-6H) = rnADAMTS-5 (1-564-6H) (Rattus norvegicus, UniProt Q6TY19); conditions: read-out: Rat ADAMTS-5 potency IC50
human MMP13 = human MMP13 (Homo sapiens (Human), UniProt P45452); conditions: read-out: hMMP-13 potency IC50
Method: Human MMP13 is preactivated by incubated the enzyme in the same buffer complemented with 1 mM freshly prepared p-Aminophenylmercuric acetate (AMPA) for 1 hour at 37° C.

human TACE = human TACE (Homo sapiens (Human), UniProt P78536); conditions: read-out: TACE potency IC50
human ADAMTS-5 = human ADAMTS-5 (Homo sapiens (Human), UniProt Q9UNA0); conditions: read-out: hADAMTS-5 potency IC50
human ADAMTS-5, sequence (Q9UNA0 262-930): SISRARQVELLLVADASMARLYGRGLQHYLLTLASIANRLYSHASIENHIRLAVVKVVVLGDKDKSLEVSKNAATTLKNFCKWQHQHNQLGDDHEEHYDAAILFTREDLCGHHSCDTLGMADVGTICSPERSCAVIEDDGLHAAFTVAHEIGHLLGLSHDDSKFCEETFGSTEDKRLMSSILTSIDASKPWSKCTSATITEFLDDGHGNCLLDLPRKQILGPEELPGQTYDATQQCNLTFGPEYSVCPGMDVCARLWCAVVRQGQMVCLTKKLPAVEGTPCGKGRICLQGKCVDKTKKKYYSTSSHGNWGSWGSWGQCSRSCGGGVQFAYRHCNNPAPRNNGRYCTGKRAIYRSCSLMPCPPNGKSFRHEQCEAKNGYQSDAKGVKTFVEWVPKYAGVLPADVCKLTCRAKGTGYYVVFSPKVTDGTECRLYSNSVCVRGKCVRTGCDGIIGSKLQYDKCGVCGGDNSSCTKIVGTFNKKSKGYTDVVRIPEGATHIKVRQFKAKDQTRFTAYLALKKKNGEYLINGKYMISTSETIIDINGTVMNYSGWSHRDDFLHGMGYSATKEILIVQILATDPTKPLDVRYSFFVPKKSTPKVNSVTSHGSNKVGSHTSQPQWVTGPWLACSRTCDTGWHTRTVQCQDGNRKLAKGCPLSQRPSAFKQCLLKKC
Method: Finally, the fluorescence is read on the Envision (Perkin Elmer) after an incubation of 90 min at 37° C.

human TACE, sequence (P78536 whole entry, looked up, change not shown): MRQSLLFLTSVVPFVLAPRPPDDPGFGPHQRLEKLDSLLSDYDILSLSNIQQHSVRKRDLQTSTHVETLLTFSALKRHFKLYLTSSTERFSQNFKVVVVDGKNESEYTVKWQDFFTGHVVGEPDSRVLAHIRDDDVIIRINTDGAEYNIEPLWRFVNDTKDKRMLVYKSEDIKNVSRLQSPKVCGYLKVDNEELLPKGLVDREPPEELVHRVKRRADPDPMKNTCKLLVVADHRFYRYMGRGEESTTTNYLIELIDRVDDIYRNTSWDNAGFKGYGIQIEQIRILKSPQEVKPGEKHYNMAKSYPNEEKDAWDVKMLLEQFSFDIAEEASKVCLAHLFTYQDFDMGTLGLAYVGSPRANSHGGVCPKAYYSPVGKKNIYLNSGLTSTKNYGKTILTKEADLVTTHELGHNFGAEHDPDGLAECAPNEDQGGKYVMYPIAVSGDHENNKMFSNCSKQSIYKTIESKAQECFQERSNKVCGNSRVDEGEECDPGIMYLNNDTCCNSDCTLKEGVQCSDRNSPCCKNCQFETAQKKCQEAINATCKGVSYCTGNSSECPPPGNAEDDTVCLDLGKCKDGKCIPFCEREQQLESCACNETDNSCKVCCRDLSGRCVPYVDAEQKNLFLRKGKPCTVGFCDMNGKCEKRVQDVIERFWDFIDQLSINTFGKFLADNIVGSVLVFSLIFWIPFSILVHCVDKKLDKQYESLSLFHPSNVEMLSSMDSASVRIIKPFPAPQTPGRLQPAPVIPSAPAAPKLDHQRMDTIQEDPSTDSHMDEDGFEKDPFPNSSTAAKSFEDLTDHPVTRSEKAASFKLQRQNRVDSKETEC

Compound | IC50 (rnADAMTS-5 (1-564-6H)) [µM] | IC50 (human MMP13) [µM] | IC50 (human TACE) [µM] | IC50 (human ADAMTS-5) [µM]
O=C1NC(=O)C(CCC(=O)N2CCN(c3cc(Cl)cc(Cl)c3)CC2)(CNCc2ccccc2)N1 (stereo not drawn) [Cpd 181, 5-[(benzylamino)methyl]-5-[3-[4-(3,5-dichlorophenyl)piperazin-1-yl]-3-oxo-propyl]imidazolidine-2,4-dione] | 0.127 | > 20 | 2.86 | 0.097
COC(=O)CC1(CCC(=O)N2CCN(c3cc(Cl)cc(Cl)c3)CC2)NC(=O)NC1=O (stereo not drawn) [Cpd 182, Methyl 2-[4-[3-[4-(3,5-dichlorophenyl)piperazin-1-yl]-3-oxo-propyl]-2,5-dioxo-imidazolidin-4-yl]acetate] | 0.087 | > 20 | > 4 | 0.104
CC(C)(C)OC(=O)CC1(CCC(=O)N2CCN(c3cc(Cl)cc(Cl)c3)CC2)NC(=O)NC1=O (stereo not drawn) [Cpd 188, tert-butyl 2-[4-[3-[4-(3,5-dichlorophenyl)piperazin-1-yl]-3-oxo-propyl]-2,5-dioxo-imidazolidin-4-yl]acetate] | 0.054 | 2.67 | > 4 | 0.053
O=C(CC1(CCC(=O)N2CCN(c3cc(Cl)cc(Cl)c3)CC2)NC(=O)NC1=O)NCCO (stereo not drawn) [Cpd 189, 2-[4-[3-[4-(3,5-dichlorophenyl)piperazin-1-yl]-3-oxo-propyl]-2,5-dioxo-imidazolidin-4-yl]-N-(2-hydroxyethyl)acetamide] | 0.254 | > 20 | > 4 | 0.256
C[C@H]1CN(C(=O)CCC2(C3CC3)NC(=O)NC2=O)CCN1c1cc(Cl)cc(Cl)c1 (stereo partly drawn) [compound 142, 5-cyclopropyl-5-[3-[(3S)-4-(3,5-dichlorophenyl)-3-methyl-piperazin-1-yl]-3-oxo-propyl]imidazolidine-2,4-dione] | 0.054 | > 20 | > 4 | –
Cc1ccc(F)cc1N1CCN(C(=O)CCC2(C)NC(=O)NC2=O)C[C@@H]1C (stereo partly drawn) [compound 145, 5-[3-[(3S)-4-(5-fluoro-2-methyl-phenyl)-3-methyl-piperazin-1-yl]-3-oxo-propyl]-5-methyl-imidazolidine-2,4-dione] | 0.563 | > 20 | > 4 | –
COc1ccccc1C1(CCC(=O)N2CCN(c3cccc(Cl)c3)CC2)NC(=O)NC1=O (stereo not drawn) [compound 146, 5-[3-[4-(3-chlorophenyl)piperazin-1-yl]-3-oxo-propyl]-5-(2-methoxyphenyl)imidazolidine-2,4-dione] | 0.133 | 3.88 | 1.58 | –
C[C@H]1CN(C(=O)CCC2(C3CC3)NC(=O)NC2=O)CCN1c1ccc(Cl)cc1 (stereo partly drawn) [compound 147, 5-[3-[(3S)-4-(4-chlorophenyl)-3-methyl-piperazin-1-yl]-3-oxo-propyl]-5-cyclopropyl-imidazolidine-2,4-dione] | 0.099 | > 4 | > 4 | –
Cc1ccc(F)cc1N1CCN(C(=O)CCC2(C3CC3)NC(=O)NC2=O)C[C@@H]1C (stereo partly drawn) [compound 148, 5-cyclopropyl-5-[3-[(3S)-4-(5-fluoro-2-methyl-phenyl)-3-methyl-piperazin-1-yl]-3-oxo-propyl]imidazolidine-2,4-dione] | 0.097 | > 20 | > 4 | –
C[C@H]1CN(C(=O)CCC2(C3CC3)NC(=O)NC2=O)CCN1c1cccc(F)c1 (stereo partly drawn) [compound 151, 5-cyclopropyl-5-[3-[(3S)-4-(3-fluorophenyl)-3-methyl-piperazin-1-yl]-3-oxo-propyl]imidazolidine-2,4-dione] | 0.083 | > 20 | > 20 | –
C[C@H]1CN(C(=O)CCC2(C3CC3)NC(=O)NC2=O)CCN1c1cccc(Cl)c1 (stereo partly drawn) [compound 152, 5-[3-[(3S)-4-(3-chlorophenyl)-3-methyl-piperazin-1-yl]-3-oxo-propyl]-5-cyclopropyl-imidazolidine-2,4-dione] | 0.062 | > 20 | > 20 | –
O=C1Cc2cc(C3(CCC(=O)N4CCN(c5cccc(Cl)c5)CC4)NC(=O)NC3=O)ccc2N1 (stereo not drawn) [compound 153, 5-[3-[4-(3-chlorophenyl)piperazin-1-yl]-3-oxo-propyl]-5-(2-oxoindolin-5-yl)imidazolidine-2,4-dione] | 0.114 | > 4 | 2.27 | –
COCCN(C)CC1(CCC(=O)N2CCN(c3cccc(Cl)c3)CC2)NC(=O)NC1=O (stereo not drawn) [compound 154, 5-[3-[4-(3-chlorophenyl)piperazin-1-yl]-3-oxo-propyl]-5-[[2-methoxyethyl(methyl)amino]methyl]imidazolidine-2,4-dione] | 0.507 | > 4 | > 20 | –
C[C@H]1CN(C(=O)CCC2(C)NC(=O)NC2=O)CCN1c1cc(F)cc(F)c1 (stereo partly drawn) [compound 156, 5-[3-[(3S)-4-(3,5-difluorophenyl)-3-methyl-piperazin-1-yl]-3-oxo-propyl]-5-methyl-imidazolidine-2,4-dione] | 0.128 | > 20 | > 20 | –
C[C@H]1CN(C(=O)CCC2(C)NC(=O)NC2=O)CCN1c1cccc(F)c1 (stereo partly drawn) [compound 157, 5-[3-[(3S)-4-(3-fluorophenyl)-3-methyl-piperazin-1-yl]-3-oxo-propyl]-5-methyl-imidazolidine-2,4-dione] | 0.284 | > 20 | > 20 | –
C[C@]1(CCC(=O)N2CCN(c3cc(Cl)cc(Cl)c3)CC2)NC(=O)NC1=O [compound 159, (5R)-5-[3-[4-(3,5-dichlorophenyl)piperazin-1-yl]-3-oxo-propyl]-5-methyl-imidazolidine-2,4-dione] | 0.127 | > 20 | 1.87 | –
C[C@H]1CN(C(=O)CCC2(C3CC3)NC(=O)NC2=O)CCN1c1cc(F)cc(F)c1 (stereo partly drawn) [compound 160, 5-cyclopropyl-5-[3-[(3S)-4-(3,5-difluorophenyl)-3-methyl-piperazin-1-yl]-3-oxo-propyl]imidazolidine-2,4-dione] | 0.036 | > 20 | > 20 | –
C[C@H]1CN(C(=O)CCC2(C3CC3)NC(=O)NC2=O)CCN1c1ccc(F)c(F)c1 (stereo partly drawn) [compound 161, 5-cyclopropyl-5-[3-[(3S)-4-(3,4-difluorophenyl)-3-methyl-piperazin-1-yl]-3-oxo-propyl]imidazolidine-2,4-dione] | 0.037 | > 20 | > 20 | 0.054
C[C@H]1CN(C(=O)CCC2(C3CC3)NC(=O)NC2=O)CCN1c1ccc(Cl)c(F)c1 (stereo partly drawn) [compound 162, 5-[3-[(3S)-4-(4-chloro-3-fluoro-phenyl)-3-methyl-piperazin-1-yl]-3-oxo-propyl]-5-cyclopropyl-imidazolidine-2,4-dione] | 0.045 | > 4 | > 20 | 0.039
C[C@H]1CN(C(=O)CCC2(C3CC3)NC(=O)NC2=O)CCN1c1ccc(F)c(Cl)c1 (stereo partly drawn) [compound 163, 5-[3-[(3S)-4-(3-chloro-4-fluoro-phenyl)-3-methyl-piperazin-1-yl]-3-oxo-propyl]-5-cyclopropyl-imidazolidine-2,4-dione] | 0.045 | > 20 | > 20 | 0.04
C[C@H]1CN(C(=O)CCC2(C3CC3)NC(=O)NC2=O)CCN1c1ccc(Cl)c(Cl)c1 (stereo partly drawn) [compound 167, 5-cyclopropyl-5-[3-[(3S)-4-(3,4-dichlorophenyl)-3-methyl-piperazin-1-yl]-3-oxo-propyl]imidazolidine-2,4-dione] | 0.01 | > 4 | > 4 | 0.019
C[C@H]1CN(C(=O)CCC2(C)NC(=O)NC2=O)CCN1c1ccc(Cl)c(Cl)c1 (stereo partly drawn) [compound 168, 5-[3-[(3S)-4-(3,4-dichlorophenyl)-3-methyl-piperazin-1-yl]-3-oxo-propyl]-5-methyl-imidazolidine-2,4-dione] | 0.129 | > 20 | > 20 | 0.076
C[C@H]1CN(C(=O)CCC2(C3CC3)NC(=O)NC2=O)CCN1c1cc(F)cc(Cl)c1 (stereo partly drawn) [compound 169, 5-[3-[(3S)-4-(3-chloro-5-fluoro-phenyl)-3-methyl-piperazin-1-yl]-3-oxo-propyl]-5-cyclopropyl-imidazolidine-2,4-dione] | 0.027 | > 20 | > 20 | 0.03
C[C@H]1CN(C(=O)CCC2(C)NC(=O)NC2=O)CCN1c1cc(F)cc(Cl)c1 (stereo partly drawn) [compound 170, 5-[3-[(3S)-4-(3-chloro-5-fluoro-phenyl)-3-methyl-piperazin-1-yl]-3-oxo-propyl]-5-methyl-imidazolidine-2,4-dione] | 0.244 | > 20 | – | 0.17
CC(CC1(C2CC2)NC(=O)NC1=O)C(=O)N1CCN(c2cc(Cl)cc(Cl)c2)CC1 (stereo not drawn) [compound 172, 5-cyclopropyl-5-[3-[4-(3,5-dichlorophenyl)piperazin-1-yl]-2-methyl-3-oxo-propyl]imidazolidine-2,4-dione] | 0.011 | 2.74 | 0.311 | 0.017
Cc1ccc(F)cc1N1CCN(C(=O)C(C)CC2(C3CC3)NC(=O)NC2=O)CC1 (stereo not drawn) [compound 174, 5-cyclopropyl-5-[3-[4-(5-fluoro-2-methyl-phenyl)piperazin-1-yl]-2-methyl-3-oxo-propyl]imidazolidine-2,4-dione] | 0.017 | > 20 | 0.321 | 0.021
CC(CC1NC(=O)NC1=O)C(=O)N1CCN(c2cc(Cl)cc(Cl)c2)CC1 (stereo not drawn) [compound 200, 5-[3-[4-(3,5-dichlorophenyl)piperazin-1-yl]-2-methyl-3-oxo-propyl]imidazolidine-2,4-dione] | 0.135 | > 20 | – | 0.109
CC(CC1NC(=O)NC1=O)C(=O)N1CCN(c2cc(Cl)cc(Cl)c2)CC1 (stereo not drawn) [compound 219, 5-[3-[4-(3,5-dichlorophenyl)piperazin-1-yl]-2-methyl-3-oxo-propyl]imidazolidine-2,4-dione] | 0.029 | > 4 | – | 0.041
